Experiments:
[1] = Reversal of ABCG2 (unknown origin)-mediated multidrug resistance in human S1-M1-80 cells assessed as effect on topotecan-induced cytotoxicity by measuring topotecan IC50 at 2 uM after 72 hrs by MTT assay (Rvb = 10.14 +/- 2.820 uM)
[2] = Reversal of human ABCG2-mediated multidrug resistance in HEK293/R482 cells assessed as effect on mitoxantrone-induced cytotoxicity by measuring mitoxantrone IC50 at 2 uM after 72 hrs by CCK8 assay (Rvb = 50.66 +/- 6.88 nM)
[3] = Reversal of ABCG2 (unknown origin)-mediated multidrug resistance in human S1-M1-80 cells assessed as effect on mitoxantrone-induced cytotoxicity by measuring mitoxantrone IC50 at 1 uM after 72 hrs by MTT assay (Rvb = 73.62 +/- 7.20 uM)
[4] = Reversal of ABCG2 (unknown origin)-mediated multidrug resistance in human H460-MX20 cells assessed as effect on mitoxantrone-induced cytotoxicity by measuring mitoxantrone IC50 at 1 uM after 72 hrs by MTT assay (Rvb = 1160.60 +/- 365.72 nM)
[5] = Reversal of ABCG2 (unknown origin)-mediated multidrug resistance in human S1-M1-80 cells assessed as effect on mitoxantrone-induced cytotoxicity by measuring mitoxantrone IC50 at 2 uM after 72 hrs by MTT assay (Rvb = 73.62 +/- 7.20 uM)
[6] = Reversal of human ABCC1-mediated multidrug resistance in HEK293/MRP1 cells assessed as effect on etoposide-induced cytotoxicity by measuring etoposide IC50 at 0.5 uM after 72 hrs by CCK8 assay (Rvb = 63.34 +/- 7.92 uM)
[7] = Reversal of ABCG2 (unknown origin)-mediated multidrug resistance in human H460-MX20 cells assessed as effect on topotecan-induced cytotoxicity by measuring topotecan IC50 at 3 uM after 72 hrs by MTT assay (Rvb = 1319.20 +/- 356.14 nM)
[8] = Reversal of human ABCG2-mediated multidrug resistance in HEK293/R482 cells assessed as effect on mitoxantrone-induced cytotoxicity by measuring mitoxantrone IC50 at 1 uM after 72 hrs by CCK8 assay (Rvb = 50.66 +/- 6.88 nM)
[9] = Reversal of ABCG2 (unknown origin)-mediated multidrug resistance in human H460-MX20 cells assessed as effect on topotecan-induced cytotoxicity by measuring topotecan IC50 at 1 uM after 72 hrs by MTT assay (Rvb = 1319.20 +/- 356.14 nM)
[10] = Reversal of ABCG2 (unknown origin)-mediated multidrug resistance in human H460-MX20 cells assessed as effect on mitoxantrone-induced cytotoxicity by measuring mitoxantrone IC50 at 2 uM after 72 hrs by MTT assay (Rvb = 1160.60 +/- 365.72 nM)
[11] = Reversal of ABCG2 (unknown origin)-mediated multidrug resistance in human H460-MX20 cells assessed as effect on mitoxantrone-induced cytotoxicity by measuring mitoxantrone IC50 at 0.5 uM after 72 hrs by MTT assay (Rvb = 1160.60 +/- 365.72 nM)
[12] = Reversal of human ABCG2-mediated multidrug resistance in HEK293/R482 cells assessed as effect on mitoxantrone-induced cytotoxicity by measuring mitoxantrone IC50 at 0.5 uM after 72 hrs by CCK8 assay (Rvb = 50.66 +/- 6.88 nM)
[13] = Reversal of ABCG2 (unknown origin)-mediated multidrug resistance in human S1-M1-80 cells assessed as effect on mitoxantrone-induced cytotoxicity by measuring mitoxantrone IC50 at 3 uM after 72 hrs by MTT assay (Rvb = 73.62 +/- 7.20 uM)
[14] = Reversal of ABCG2 (unknown origin)-mediated multidrug resistance in human H460-MX20 cells assessed as effect on topotecan-induced cytotoxicity by measuring topotecan IC50 at 0.5 uM after 72 hrs by MTT assay (Rvb = 1319.20 +/- 356.14 nM)
[15] = Reversal of human ABCC1-mediated multidrug resistance in HEK293/MRP1 cells assessed as effect on etoposide-induced cytotoxicity by measuring etoposide IC50 at 1 uM after 72 hrs by CCK8 assay (Rvb = 63.34 +/- 7.92 uM)
[16] = Reversal of ABCG2 (unknown origin)-mediated multidrug resistance in human S1-M1-80 cells assessed as effect on topotecan-induced cytotoxicity by measuring topotecan IC50 at 3 uM after 72 hrs by MTT assay (Rvb = 10.14 +/- 2.820 uM)
[17] = Reversal of human ABCG2-mediated multidrug resistance in HEK293/R482 cells assessed as effect on mitoxantrone-induced cytotoxicity by measuring mitoxantrone IC50 at 3 uM after 72 hrs by CCK8 assay (Rvb = 50.66 +/- 6.88 nM)
[18] = Reversal of human ABCC1-mediated multidrug resistance in HEK293/MRP1 cells assessed as effect on etoposide-induced cytotoxicity by measuring etoposide IC50 at 2 uM after 72 hrs by CCK8 assay (Rvb = 63.34 +/- 7.92 uM)
[19] = Reversal of ABCG2 (unknown origin)-mediated multidrug resistance in human S1-M1-80 cells assessed as effect on topotecan-induced cytotoxicity by measuring topotecan IC50 at 1 uM after 72 hrs by MTT assay (Rvb = 10.14 +/- 2.820 uM)
[20] = Reversal of ABCG2 (unknown origin)-mediated multidrug resistance in human S1-M1-80 cells assessed as effect on mitoxantrone-induced cytotoxicity by measuring mitoxantrone IC50 at 0.5 uM after 72 hrs by MTT assay (Rvb = 73.62 +/- 7.20 uM)
[21] = Reversal of human ABCG2-mediated multidrug resistance in HEK293/R482 cells assessed as effect on topotecan-induced cytotoxicity by measuring topotecan IC50 at 3 uM after 72 hrs by CCK8 assay (Rvb = 201.31 +/- 25.89 nM)
[22] = Reversal of ABCG2 (unknown origin)-mediated multidrug resistance in human H460-MX20 cells assessed as effect on mitoxantrone-induced cytotoxicity by measuring mitoxantrone IC50 at 3 uM after 72 hrs by MTT assay (Rvb = 1160.60 +/- 365.72 nM)
[23] = Reversal of human ABCG2-mediated multidrug resistance in HEK293/R482 cells assessed as effect on topotecan-induced cytotoxicity by measuring topotecan IC50 at 2 uM after 72 hrs by CCK8 assay (Rvb = 201.31 +/- 25.89 nM)
[24] = Reversal of human ABCC1-mediated multidrug resistance in HEK293/MRP1 cells assessed as effect on etoposide-induced cytotoxicity by measuring etoposide IC50 at 3 uM after 72 hrs by CCK8 assay (Rvb = 63.34 +/- 7.92 uM)
[25] = Reversal of human ABCG2-mediated multidrug resistance in HEK293/R482 cells assessed as effect on topotecan-induced cytotoxicity by measuring topotecan IC50 at 1 uM after 72 hrs by CCK8 assay (Rvb = 201.31 +/- 25.89 nM)
[26] = Reversal of ABCG2 (unknown origin)-mediated multidrug resistance in human S1-M1-80 cells assessed as effect on topotecan-induced cytotoxicity by measuring topotecan IC50 at 0.5 uM after 72 hrs by MTT assay (Rvb = 10.14 +/- 2.820 uM)
[27] = Reversal of ABCG2 (unknown origin)-mediated multidrug resistance in human H460-MX20 cells assessed as effect on topotecan-induced cytotoxicity by measuring topotecan IC50 at 2 uM after 72 hrs by MTT assay (Rvb = 1319.20 +/- 356.14 nM)
[28] = Reversal of human ABCG2-mediated multidrug resistance in HEK293/R482 cells assessed as effect on topotecan-induced cytotoxicity by measuring topotecan IC50 at 0.5 uM after 72 hrs by CCK8 assay (Rvb = 201.31 +/- 25.89 nM)

Compound: C=CC(C)(C)c1cc(/C=C/C(=O)c2ccc(O)cc2)c(OC)cc1O [3-(4-hydroxy-2-methoxy-5-(2-methylbut-3-en-2-yl)phenyl)-1-(4-hydroxyphenyl)prop-2-en-1-one]
- IC50 [1]: 0.41 µM
- IC50 [2]: 0.0078 µM
- IC50 [3]: 6.8 µM
- IC50 [4]: 0.086 µM
- IC50 [5]: 2.63 µM
- IC50 [6]: 53.6 µM
- IC50 [7]: 0.13 µM
- IC50 [8]: 0.0071 µM
- IC50 [9]: 0.144 µM
- IC50 [10]: 0.075 µM
- IC50 [11]: 0.442 µM
- IC50 [12]: 0.019 µM
- IC50 [13]: 1.53 µM
- IC50 [14]: 0.367 µM
- IC50 [15]: 49.3 µM
- IC50 [16]: 0.31 µM
- IC50 [17]: 0.0062 µM
- IC50 [18]: 66.7 µM
- IC50 [19]: 0.61 µM
- IC50 [20]: 39.5 µM
- IC50 [21]: 0.042 µM
- IC50 [22]: 0.07 µM
- IC50 [23]: 0.044 µM
- IC50 [24]: 56.5 µM
- IC50 [25]: 0.051 µM
- IC50 [26]: 1.03 µM
- IC50 [27]: 0.148 µM
- IC50 [28]: 0.09 µM
